Data set [1] deals with ubiquitin proteasomal pathway (UPP) in 8B20 mouse melanoma cells. The data set can be described thus: Ubiquitin immunoblot controls for UPP inhibition in 8B20 cells. The format is cell-based. Conditions: 50 μM, negative control. As for the experimental part: As a positive control of UPP inhibition, we used 8B20 mouse melanoma cells treated with UPP inhibitors MG132 (10 μM) and Lactacystin (10 μM), and as a negative control we used 8B20 cells treated with etoposide (50 μM), a DNA damaging agent.
SDS-PAGE and immunoblot analysis. Proteins were analyzed by SDS-PAGE (12% gels) followed by transfer to a polyvinylidene difluoride membrane (0.4 μM) in 25 mM Tris, 192 mM glycine, and 20% methanol at 110 V for 1 hour. Membranes were blocked overnight in 10 mM Tris-HCl, pH 8.0, 125 mM NaCl, and 0.2% (v/v) Tween 20 containing 5% (w/v) nonfat dry milk (TBST-M5). Immunoblot analysis of the total protein bands were visualized using enhanced chemiluminescence as described by the manufacturer (Pierce Biotechnology, Inc., Rockford, Ill.). Immunoblots were subsequently stripped of antibodies by incubating for 15-20 minutes at 37° C. with Restore Western Stripping Buffer (Pierce Biotechnology, Inc., Rockford, Ill.) and re-probed with β-actin antibody to confirm protein loading. Densitometric analysis of the membranes was performed using GelDoc 200 (Bio-Rad Laboratories, Hercules, Calif.).
On the technique in general: A western blot detects proteins with antibodies after separation by electrophoresis.

For another data set, the system named is SKH-1 mice. The data set can be described thus: Preliminary experiment assessing adverse effects of bucillamine alone in SKH-1 mice. In kind it is in vivo. Conditions: 20 mg/kg s.c., two doses 24 hours apart, no UVB. The procedure: In order to assess any adverse effects of bucillamine and UV exposure separately, a preliminary experiment was carried out in which SKH-1 mice were either treated with bucillamine (20 mg/kg s.c.) or UVB (230 mJ/cm^2) irradiation. Bucillamine can, for example, be administered intravenously, subcutaneously, intramuscularly or orally. Subcutaneous administration was used because it is a relatively easy route and the least likely to injure the animal during administration. The selection of bucillamine dose and UVB dose was based on previously published studies (13, 19, 21, 22). High dose of UVB (230 mJ/cm^2) was selected to investigate bucillamine effect on acute photodamage. Each group of animals received two doses of bucillamine or UVB, 24 hours apart. […] UVB exposure caused edema, erythema and thickening of the exposed skin.

Data set [2] has as its system p53. In words: Immunohistochemical analysis of nuclear p53 staining in epidermal keratinocytes. In kind it is in vivo, mice. The following applies: 24 hours after the last UVB exposure; 20 mg/kg s.c. pre-treatment. From the text:
Animals and treatment for Example 2. Female SKH-1 hairless mice (6 weeks old) were purchased from Charles River Laboratories (Wilmington, Mass.). After their arrival, animals were housed at […] vivarium under specific pathogen-free conditions according to the National Institutes of Health Animal Care Guidelines under an Institutional protocol reviewed and approved by the Institutional Animal Care and Use Committee (IACUC). Animals were allowed to acclimatize for a week prior to the experiment. Animals were fed Purina chow diet and water ad libitum. Throughout the experimental protocol, the mice were maintained at standard conditions; temperature 24±2° C., relative humidity 50±10%, and 12 hour room light/12 hour dark cycle. Mice were divided into four groups. […] The remaining animals were divided into UV exposure alone (Group 2), UV+saline treatment (Group 3) and UV+bucillamine treatment (Group 4). Mice in groups 2-4 were exposed to two doses of 230 mJ/cm^2 UVB, 24 hours apart. Two hours prior to each UVB exposure, mice in groups 3 and 4 were treated with normal saline (Group 3) or bucillamine at a concentration of 20 mg/kg of body weight (Group 4) subcutaneously. […] All samples were coded and evaluated by at least two investigators in a blinded manner. […]

The test system of data set [3] is UV-exposed skin of SKH-1 hairless mice. In words: Histology of UVB-exposed dorsal skin after bucillamine pre-treatment. The format is in vivo. From the text: Animals and treatment for Example 2. Female SKH-1 hairless mice (6 weeks old) were purchased from Charles River Laboratories (Wilmington, Mass.). After their arrival, animals were housed at UCDHSC vivarium under specific pathogen-free conditions according to the National Institutes of Health Animal Care Guidelines under an Institutional protocol reviewed and approved by the Institutional Animal Care and Use Committee (IACUC). Animals were allowed to acclimatize for a week prior to the experiment. Animals were fed Purina chow diet and water ad libitum. Throughout the experimental protocol, the mice were maintained at standard conditions; temperature 24±2° C., relative humidity 50±10%, and 12 hour room light/12 hour dark cycle. Mice were divided into four groups. […] The remaining animals were divided into UV exposure alone (Group 2), UV+saline treatment (Group 3) and UV+bucillamine treatment (Group 4). Mice in groups 2-4 were exposed to two doses of 230 mJ/cm^2 UVB, 24 hours apart. Two hours prior to each UVB exposure, mice in groups 3 and 4 were treated with normal saline (Group 3) or bucillamine at a concentration of 20 mg/kg of body weight (Group 4) subcutaneously. Animals were sacrificed after the last UVB exposure at various time points, and the dorsal skin was surgically removed and used for further analysis.
UVB Source. We employed four FS-40-T-12-UVB sunlamps with UVB spectra 305 Dosimeter (Daavlin, Bryan, Ohio), which emitted about 80% radiation in the range of 280-340 nm with a peak emission at 314 nm as monitored with a SEL 240 photodetector, 103 filter and 1008 diffuser attached to an IL1400A NIST Traceable Radiometer/Photometer from International Light (Newburyport, Mass.). The UVB irradiation doses were also calibrated using an IL1400A radiometer.
Histopathology. Skin samples were fixed in 10% formalin and embedded in paraffin. Vertical sections (4 μm thickness) were cut and mounted on a glass slide, and stained with hematoxylin and eosin followed by microscopic evaluation of the slides. SKH-1 hairless mice were unexposed or irradiated with UVB (230 mJ/cm^2) twice, 24 hours apart. Mice irradiated with UVB were untreated or pre-treated with bucillamine or saline. Skin samples were collected at 6 hours and 24 hours after the last UVB exposure, and processed for histopathological analysis.

The subject of a further data set is p53 (Ser15, Ser20). In words: UVB-induced phosphorylation of p53 at Ser15 and Ser20 in skin (immunoblot). The format is in vivo, mice. Conditions: 20 mg/kg s.c. pre-treatment. From the text: (§1) Animals and treatment for Example 2. Female SKH-1 hairless mice (6 weeks old) were purchased from Charles River Laboratories (Wilmington, Mass.). After their arrival, animals were housed at UCDHSC vivarium under specific pathogen-free conditions according to the National Institutes of Health Animal Care Guidelines under an Institutional protocol reviewed and approved by the Institutional Animal Care and Use Committee (IACUC). Animals were allowed to acclimatize for a week prior to the experiment. Animals were fed Purina chow diet and water ad libitum. Throughout the experimental protocol, the mice were maintained at standard conditions; temperature 24±2° C., relative humidity 50±10%, and 12 hour room light/12 hour dark cycle. Mice were divided into four groups. […] The remaining animals were divided into UV exposure alone (Group 2), UV+saline treatment (Group 3) and UV+bucillamine treatment (Group 4). Mice in groups 2-4 were exposed to two doses of 230 mJ/cm^2 UVB, 24 hours apart. Two hours prior to each UVB exposure, mice in groups 3 and 4 were treated with normal saline (Group 3) or bucillamine at a concentration of 20 mg/kg of body weight (Group 4) subcutaneously. […]
(§2) SDS-PAGE and immunoblot analysis. Proteins were analyzed by SDS-PAGE (12% gels) followed by transfer to a polyvinylidene difluoride membrane (0.4 μM) in 25 mM Tris, 192 mM glycine, and 20% methanol at 110 V for 1 hour. […]

For a further data set, the system named is PUMA. In words: UVB-induced activation of PUMA, downstream target of p53, in skin. The format is in vivo, mice. Conditions: 12 and 24 hours after the last UVB exposure; 20 mg/kg s.c. pre-treatment.
Description: as §1, §2

The test system of data set [4] is p53. In words: UVB-mediated total p53 induction in skin lysates (immunoblot). The format is in vivo, mice. Conditions: 20 mg/kg s.c. pre-treatment.
Description: as §1, §2

[5] abbreviates: 12 and 24 hours after the last UVB exposure.
[6] abbreviates: 6 hours after the last UVB exposure.

Molecules are shown by their SMILES. Entries after “also recorded” stand apart in the source; their conditions may differ.

As for `COc1cc([C@@H]2c3cc4c(cc3[C@@H](O[C@@H]3O[C@@H]5CO[C@@H](C)O[C@H]5[C@H](O)[C@H]3O)[C@H]3COC(=O)[C@H]23)OCO4)cc(OC)c1O` [etoposide], the “ubiquitin reactive high molecular weight bands (polyubiquitinated species)” value in data set [1] was “no polyubiquitinated species”.
Take `CC(C)(S)C(=O)N[C@@H](CS)C(=O)O` [bucillamine, N-(2-mercapto-2-methylpropionyl)-L-cysteine]: the adverse effects result with SKH-1 mice was “no adverse effects”. Besides, the “nuclear p53 staining in epidermal keratinocytes” value in the data set with p53 [2] is recorded as “diminished this effect”. The “UVB-induced erythema of dorsal skin” value in data set [3] (20 mg/kg s.c. 2 h before each of two 230 mJ/cm^2 UVB exposures) was “attenuated the erythema”. The UVB-induced inflammation result in data set [3] (12 and 24 hours after the last UVB exposure, pre-treatment) is reported as “attenuated the inflammation”. Moreover, the “epidermal necrosis (histology)” value in data set [3] (6 hours after the last UVB exposure, 20 mg/kg s.c. pre-treatment) was “epidermal necrosis was less prominent”. For the same molecule, the “UV-effects on inflammation (dermal edema, leukocyte infiltration, dilatation of blood vessels)” value in data set [3] (24 hours after the last UVB exposure, 20 mg/kg s.c. pre-treatment) is reported as “attenuated the UV-effects on inflammation”. For the same molecule, the “phosphorylation of p53 at Ser15 and Ser20” value with p53 (Ser15, Ser20) (setting [5]) was “further diminished the phosphorylation; also recorded: quick decrease”; in the data set on p53 (Ser15, Ser20) (setting [6]), “attenuated this effect”. Moreover, the “activation of PUMA” value in the data set with PUMA is recorded as “attenuated the activation of PUMA”. For the same molecule, the p53 level result in the data set on p53 [4] (setting [5]) was “further decreased”. The “induction of total p53” value in the data set with p53 [4] (setting [6]) was “attenuated this effect”.
